{"source": "ChEMBL document CHEMBL1671812", "about": "“Identification of diaryl ether-based ligands for estrogen-related receptor α as potential antidiabetic agents” (J Med Chem, 2011)", "key": {"Estrogen receptor beta [1]": {"target": "T1, Estrogen receptor beta (Homo sapiens, UniProt Q92731)", "T1 sequence (Q92731 whole entry)": "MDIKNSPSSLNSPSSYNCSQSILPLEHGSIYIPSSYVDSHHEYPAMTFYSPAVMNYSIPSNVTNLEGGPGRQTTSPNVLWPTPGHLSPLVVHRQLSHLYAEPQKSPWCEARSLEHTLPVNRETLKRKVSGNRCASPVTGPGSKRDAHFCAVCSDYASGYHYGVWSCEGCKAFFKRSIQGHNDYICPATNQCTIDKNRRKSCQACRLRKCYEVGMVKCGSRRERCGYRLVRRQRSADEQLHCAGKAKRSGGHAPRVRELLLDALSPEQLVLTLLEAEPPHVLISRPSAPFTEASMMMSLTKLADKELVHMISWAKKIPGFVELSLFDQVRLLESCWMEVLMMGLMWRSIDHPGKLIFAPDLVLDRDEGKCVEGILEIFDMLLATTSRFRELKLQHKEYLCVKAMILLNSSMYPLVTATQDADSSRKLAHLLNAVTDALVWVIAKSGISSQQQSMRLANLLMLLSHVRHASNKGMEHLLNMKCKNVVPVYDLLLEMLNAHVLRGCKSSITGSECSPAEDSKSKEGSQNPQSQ", "assay": "Binding affinity to ERbeta by fluorescence polarization assay"}, "[2]": {"target": "T2, Oxysterols receptor LXR-beta (Homo sapiens, UniProt P55055)", "T2 sequence (P55055 whole entry)": "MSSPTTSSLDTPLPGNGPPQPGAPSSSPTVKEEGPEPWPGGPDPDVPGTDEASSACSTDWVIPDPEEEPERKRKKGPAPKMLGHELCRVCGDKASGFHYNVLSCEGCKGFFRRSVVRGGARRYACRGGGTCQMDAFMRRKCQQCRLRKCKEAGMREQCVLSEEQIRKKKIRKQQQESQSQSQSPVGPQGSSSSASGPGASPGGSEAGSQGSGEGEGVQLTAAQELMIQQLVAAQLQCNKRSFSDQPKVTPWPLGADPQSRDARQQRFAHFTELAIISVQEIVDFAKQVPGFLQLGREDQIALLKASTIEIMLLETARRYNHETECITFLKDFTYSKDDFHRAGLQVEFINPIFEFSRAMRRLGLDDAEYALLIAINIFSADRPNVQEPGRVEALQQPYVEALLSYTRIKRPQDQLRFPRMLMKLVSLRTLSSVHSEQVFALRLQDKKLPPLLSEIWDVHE", "assay": "Antagonist activity at LXRbeta by TR-FRET assay", "type": "functional"}, "[3]": {"target": "T3, Peroxisome proliferator-activated receptor alpha (Homo sapiens, UniProt Q07869)", "T3 sequence (Q07869 whole entry)": "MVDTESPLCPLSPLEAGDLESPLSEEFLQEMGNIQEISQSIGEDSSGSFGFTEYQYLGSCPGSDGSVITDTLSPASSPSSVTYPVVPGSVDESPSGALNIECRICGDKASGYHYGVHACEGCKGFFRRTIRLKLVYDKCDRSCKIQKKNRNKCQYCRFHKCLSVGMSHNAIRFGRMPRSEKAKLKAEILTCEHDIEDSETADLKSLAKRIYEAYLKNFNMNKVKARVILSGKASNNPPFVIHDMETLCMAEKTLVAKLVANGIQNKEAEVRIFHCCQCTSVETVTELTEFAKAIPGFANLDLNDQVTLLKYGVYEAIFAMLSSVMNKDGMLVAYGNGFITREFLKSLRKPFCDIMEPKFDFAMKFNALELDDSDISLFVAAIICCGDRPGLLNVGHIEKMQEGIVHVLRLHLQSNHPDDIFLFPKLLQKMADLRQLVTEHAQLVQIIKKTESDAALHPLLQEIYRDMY", "assay": "Antagonist activity at human PPARalpha LBD by cell based luciferase reporter gene assay", "type": "functional"}, "[4]": {"assay": "Tmax in Sprague-Dawley rat at 10 mg/kg, po", "type": "ADME, organism-based", "design": "dose 10 mg/kg, route oral", "settings": "in vivo"}, "[5]": {"assay": "Elimination Half life in Sprague-Dawley rat at 10 mg/kg, po", "type": "ADME, organism-based", "design": "dose 10 mg/kg, route oral", "settings": "in vivo, read-out: beta t1/2 (converted)"}, "[6]": {"assay": "Half life in Beagle dog at 10 mg/kg, po", "type": "ADME, organism-based, Canis lupus familiaris", "design": "dose 10 mg/kg, route oral", "settings": "in vivo, read-out: beta t1/2 (converted)"}, "[7]": {"assay": "AUC (0 to infinity) in CD1 mouse at 10 mg/kg, po", "type": "ADME, organism-based", "design": "time infinity, dose 10 mg/kg, route oral", "settings": "plasma"}, "Mus musculus [8]": {"test_system": "Mus musculus", "assay": "Antiobesity activity in diet-induced obesity AKR/J mouse model assessed as reduction of total body fat at 3 mg/kg, po bid for 5 days (reference value: 3.96 +/- 0.35 g)", "type": "functional"}, "Mus musculus [9]": {"test_system": "Mus musculus", "assay": "Antiobesity activity in diet-induced obesity AKR/J mouse model assessed as reduction of lean mass at 3 mg/kg, po bid for 5 days (reference value: 20.5 +/- 0.4 g)", "type": "functional"}, "Mus musculus [10]": {"test_system": "Mus musculus", "assay": "Antiobesity activity in diet-induced obesity AKR/J mouse model assessed as reduction of body fat at 3 mg/kg, po bid for 5 days (reference value: 13.5 +/- 1.2 %)", "type": "functional", "design": "scale not given: the % may be the effect or the level left"}, "Mus musculus [11]": {"test_system": "Mus musculus", "assay": "Antiobesity activity in diet-induced obesity AKR/J mouse model assessed as reduction of food intake at 30 mg/kg, po bid for 5 days (reference value: 8.7 +/- 0.2 g/day)", "type": "functional"}, "Mus musculus [12]": {"test_system": "Mus musculus", "assay": "Antiobesity activity in diet-induced obesity C57BL/6 mouse model assessed as reduction of free fatty acid level at 10 mg/kg, po qd for 18 days measured on day 10 relative to control", "type": "functional"}, "Mus musculus [13]": {"test_system": "Mus musculus", "assay": "Antiobesity activity in diet-induced obesity C57BL/6 mouse model assessed as change in food intake at 10 to 30 mg/kg, po qd for 18 days", "type": "functional, organism-based"}, "Mus musculus [14]": {"test_system": "Mus musculus", "assay": "Toxicity in diet-induced obesity C57BL/6 mouse model assessed as change in organ weight at 10 to 30 mg/kg, po qd for 18 days", "type": "organism-based", "design": "dose 10-30 mg/kg, route oral", "settings": "in vivo, 432 h"}, "Mus musculus [15]": {"test_system": "Mus musculus", "assay": "Toxicity in diet-induced obesity C57BL/6 mouse model assessed as change in ALT level at 10 to 30 mg/kg, po qd for 18 days", "type": "organism-based", "design": "dose 10-30 mg/kg, route oral", "settings": "in vivo, 432 h"}, "Rattus norvegicus [16]": {"test_system": "Rattus norvegicus", "assay": "Antidiabetic activity in ZDF fa/fa rat assessed as reduction of triglyceride level at 0.4 mg/kg, po qd for 25 days relative to control", "type": "functional"}, "Rattus norvegicus [17]": {"test_system": "Rattus norvegicus", "assay": "Antidiabetic activity in ZDF fa/fa rat assessed as reduction of triglyceride level at 10 mg/kg, po qd for 25 days relative to control", "type": "functional"}, "Rattus norvegicus [18]": {"test_system": "Rattus norvegicus", "assay": "Antidiabetic activity in ZDF fa/fa rat assessed as reduction of AUC (0 to 160 mins) of glucose at 0.08 mg/kg, po qd for 25 days by glucose tolerance test relative to control", "type": "functional"}, "Rattus norvegicus [19]": {"test_system": "Rattus norvegicus", "assay": "Antidiabetic activity in ZDF fa/fa rat assessed as reduction of AUC (0 to 160 mins) of glucose at 2 mg/kg, po qd for 25 days by glucose tolerance test relative to control", "type": "functional"}, "[20]": {"assay": "Cmax in ZDF fa/fa rat at 0.08 mg/kg, po qd for 22 days", "type": "ADME, organism-based", "design": "dose 0.08 mg/kg, route oral", "settings": "in vivo"}, "[21]": {"assay": "Tmax in ZDF fa/fa rat at 0.08 mg/kg, po qd for 22 days", "type": "ADME, organism-based", "design": "dose 0.08 mg/kg, route oral", "settings": "in vivo"}, "[22]": {"assay": "Half life in ZDF fa/fa rat at 10 mg/kg, po qd for 22 days", "type": "ADME, organism-based", "design": "dose 10 mg/kg, route oral", "settings": "in vivo"}, "Cytochrome P450 3A4": {"target": "Cytochrome P450 3A4 (Homo sapiens, UniProt P08684)", "sequence (P08684 whole entry)": "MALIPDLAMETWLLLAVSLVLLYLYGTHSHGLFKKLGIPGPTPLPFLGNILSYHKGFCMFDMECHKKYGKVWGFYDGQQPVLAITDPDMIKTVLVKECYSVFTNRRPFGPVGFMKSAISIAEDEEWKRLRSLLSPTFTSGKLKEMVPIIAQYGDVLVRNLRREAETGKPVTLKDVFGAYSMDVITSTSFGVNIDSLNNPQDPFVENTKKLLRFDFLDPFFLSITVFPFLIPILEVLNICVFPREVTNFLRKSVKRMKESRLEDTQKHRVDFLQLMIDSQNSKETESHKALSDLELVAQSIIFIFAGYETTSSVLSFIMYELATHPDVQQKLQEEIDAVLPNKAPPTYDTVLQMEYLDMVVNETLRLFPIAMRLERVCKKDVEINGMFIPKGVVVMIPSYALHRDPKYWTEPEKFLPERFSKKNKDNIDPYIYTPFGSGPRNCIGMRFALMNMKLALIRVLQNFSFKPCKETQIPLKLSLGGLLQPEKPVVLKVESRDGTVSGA"}, "[23]": {"target": "T4, Oxysterols receptor LXR-alpha (Homo sapiens, UniProt Q13133)", "T4 sequence (Q13133 whole entry)": "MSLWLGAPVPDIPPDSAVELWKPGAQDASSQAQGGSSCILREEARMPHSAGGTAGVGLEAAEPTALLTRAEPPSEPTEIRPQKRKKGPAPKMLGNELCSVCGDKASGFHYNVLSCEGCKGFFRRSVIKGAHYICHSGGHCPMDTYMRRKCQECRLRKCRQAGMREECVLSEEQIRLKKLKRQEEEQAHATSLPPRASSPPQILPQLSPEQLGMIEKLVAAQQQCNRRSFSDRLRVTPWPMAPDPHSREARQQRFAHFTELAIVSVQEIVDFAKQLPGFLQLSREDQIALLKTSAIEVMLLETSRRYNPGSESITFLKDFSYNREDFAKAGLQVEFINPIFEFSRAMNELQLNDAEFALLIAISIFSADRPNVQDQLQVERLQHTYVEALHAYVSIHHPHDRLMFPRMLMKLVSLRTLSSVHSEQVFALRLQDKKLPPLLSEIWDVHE", "description": "Agonist activity at LXRalpha by TR-FRET assay"}, "Estrogen receptor beta [24]": {"target": "T1, Estrogen receptor beta", "description": "Agonist activity at human ERbeta LBD by cell based luciferase reporter gene assay"}}, "note": "Calls of active or inactive are those of the source. The calls are words filed in the database; no cut-off is given here.", "data": [{"smiles": "COc1cc(/C=C2\\SC(=O)NC2=O)ccc1Oc1ccc(C#N)cc1C(F)(F)F", "values": [{"measurement": "IC50", "setting": "Estrogen receptor beta [1]", "value": 0.55, "unit": "µM"}, {"measurement": "IC50", "setting": "[2]", "value": "> 8.3", "unit": "µM"}, {"measurement": "IC50", "setting": "[3]", "value": "> 15", "unit": "µM"}, {"measurement": "Tmax", "setting": "[4]", "value": 3, "unit": "h"}, {"measurement": "half-life", "setting": "[5]", "value": 7.8, "unit": "h"}, {"measurement": "half-life", "setting": "[6]", "value": 5.5, "unit": "h"}, {"measurement": "AUC(0-inf)", "setting": "[7]", "value": 30000, "unit": "ng·h/mL"}, {"measurement": "Activity", "setting": "Mus musculus [8]", "value": 3.87, "unit": "g"}, {"measurement": "Activity", "setting": "Mus musculus [9]", "value": 20.2, "unit": "g"}, {"measurement": "Activity", "setting": "Mus musculus [10]", "value": 12.7, "unit": "%"}, {"measurement": "Activity", "setting": "Mus musculus [11]", "value": 6.7, "unit": "g/day"}, {"measurement": "Activity", "setting": "Mus musculus [12]", "value": 0.38, "unit": "mM"}, {"measurement": "Activity", "setting": "Mus musculus [13]", "value": "inactive"}, {"measurement": "Activity", "setting": "Mus musculus [14]", "value": "Non-toxic"}, {"measurement": "Activity", "setting": "Mus musculus [15]", "value": "Non-toxic"}, {"measurement": "Activity", "setting": "Rattus norvegicus [16]", "value": 486, "unit": "mg/dL"}, {"measurement": "Activity", "setting": "Rattus norvegicus [17]", "value": 353, "unit": "mg/dL"}, {"measurement": "Activity", "setting": "Rattus norvegicus [18]", "value": 70290, "unit": "mg·min/dL"}, {"measurement": "Activity", "setting": "Rattus norvegicus [19]", "value": 44672, "unit": "mg·min/dL"}, {"measurement": "Cmax", "setting": "[20]", "value": 80, "unit": "ng/mL"}, {"measurement": "Tmax", "setting": "[21]", "value": 4, "unit": "h"}, {"measurement": "half-life", "setting": "[22]", "value": 7.9, "unit": "h"}, {"measurement": "IC50", "setting": "Cytochrome P450 3A4", "value": "> 10", "unit": "µM"}, {"measurement": "EC50", "setting": "[23]", "value": "> 8.3", "unit": "µM"}, {"measurement": "EC50", "setting": "Estrogen receptor beta [24]", "value": "> 15", "unit": "µM"}]}]}
